{
  "source": "ChEMBL document CHEMBL1158867",
  "about": "“Activity-guided isolation of constituents of Tephrosia purpurea with the potential to induce the phase II enzyme, quinone reductase” (J Nat Prod, 1997)",
  "key": {"[1]": {"assay": "Chemoprevention index, ratio of IC50 for mouse Hepa-1c1c7 cells to drug level required to double quinone reductase activity in mouse Hepa-1c1c7 cells", "assay_type": "functional"}, "[2]": {"assay": "Cytotoxicity against mouse Hepa-1c1c7 cells assessed as cell survival after 2 days by MTT assay", "assay_type": "functional, cell-based", "settings": "Hepa-1c1c7, 48 h"}},
  "data": [
    {"compound": "Oc1ccc2c(c1)OC[C@H]1c3cc4c(cc3O[C@@H]21)OCO4", "note": "[MAACKIAIN]", "values": [
      {"measurement": "Ratio", "setting": "[1]", "result": ">8"},
      {"measurement": "IC50", "setting": "[2]", "result": "> 70.4", "unit": "µM"}
    ]},
    {"compound": "COc1c(O)ccc2c1OC[C@H]1c3cc4c(cc3O[C@@H]21)OCO4", "values": [
      {"measurement": "Ratio", "setting": "[1]", "result": ">4.4"},
      {"measurement": "IC50", "setting": "[2]", "result": "> 63.7", "unit": "µM"}
    ]},
    {"compound": "C[S+]([O-])CCCCN=C=S", "note": "(stereo not drawn) [SULFORAPHANE]", "values": [
      {"measurement": "Ratio", "setting": "[1]", "result": 25},
      {"measurement": "IC50", "setting": "[2]", "result": 11, "unit": "µM"}
    ]},
    {"compound": "O=c1cc(-c2ccccc2)oc2c1ccc1occc12", "note": "[LANCEOLATIN B]", "values": [
      {"measurement": "Ratio", "setting": "[1]", "result": ">3.3"},
      {"measurement": "IC50", "setting": "[2]", "result": "> 76.3", "unit": "µM"}
    ]},
    {"compound": "COc1cc2c(c3c1C(=O)C[C@@H](c1ccccc1)O3)[C@H]1[C@@H](O2)OC(C)(C)[C@@H]1OC(C)=O", "values": [
      {"measurement": "Ratio", "setting": "[1]", "result": ">9"},
      {"measurement": "IC50", "setting": "[2]", "result": "> 50.7", "unit": "µM"}
    ]},
    {"compound": "COc1cc(-c2coc3cc(O)ccc3c2=O)cc(OC)c1O", "values": [
      {"measurement": "Ratio", "setting": "[1]", "result": ">3.7"},
      {"measurement": "IC50", "setting": "[2]", "result": "> 63.7", "unit": "µM"}
    ]},
    {"compound": "COc1ccc2c(c1)O[C@H]1c3ccc(O)cc3OC[C@@H]21", "values": [
      {"measurement": "Ratio", "setting": "[1]", "result": ">5.4"},
      {"measurement": "IC50", "setting": "[2]", "result": "> 74", "unit": "µM"}
    ]},
    {"compound": "COc1cc2c(c(O)c1C(=O)/C=C/c1ccccc1)[C@H]1[C@@H](O2)OC(C)(C)[C@@H]1OC(C)=O", "note": "[TEPHROPURPURIN]", "values": [
      {"measurement": "Ratio", "setting": "[1]", "result": 89},
      {"measurement": "IC50", "setting": "[2]", "result": 13.4, "unit": "µM"}
    ]},
    {"compound": "COc1c(C(=O)/C=C(\\O)c2ccccc2)ccc2occc12", "note": "[PONGAMOL]", "values": [
      {"measurement": "Ratio", "setting": "[1]", "result": 3.1},
      {"measurement": "IC50", "setting": "[2]", "result": 18.7, "unit": "µM"}
    ]}
  ]
}
